Source: patent EP4685153A1 (priority 2023, dated 2024)
Residues, ends and D or L forms follow the SMILES beside them. *: point of attachment. Succinyl(4-O-cholesteryl) = CC(C)CCC[C@@H](C)[C@H]1CC[C@H]2[C@@H]3CC=C4C[C@@H](OC(=O)CCC(=O)*)CC[C@]4(C)[C@H]3CC[C@]12C

Legend:
[1] = In vitro cytotoxicity (CCK-8), MDCK cells; format: cell-based; conditions: dog, CCK-8, 48 hours
Description: (§1) The in vitro cytotoxicity was detected by using a CCK-8 cell proliferation/toxicity assay kit (manufacturer: Abbkine, Cat. No.: KTC 011001). […] By using GraphPad Prism software, the inhibition rate curve was fitted and the half-maximal cytotoxic concentration (CC50) of the drug was calculated.

[2] = tested on: RABV; conditions: 48 h
[3] = Temperature stability experiment (antiviral activity after storage); conditions: 300 µM aqueous solution, room temperature or 37 °C, various time periods; NL4-3 pseudovirus, TZM-bl cells
[4] = molecular target: N44 (Human immunodeficiency virus type 1 group M subtype B, UniProt P04578); assay: Circular dichroism of lipopeptide complex with target sequence N44; conditions: CD
[5] = tested on: seven test cells; assay: In vitro cytotoxicity (CCK-8), average over seven test cells; format: cell-based; conditions: CC50/IC50
Description: as §1

[6] = tested on: HIV-1 envelope protein (Env); assay: Env-mediated cell-cell fusion inhibition (DSP reporter system)
[7] = tested on: MARV; conditions: 48 h
[8] = tested on: H7N9; conditions: 48 h
[9] = In vitro cytotoxicity (CCK-8), HEK293T cells; format: cell-based; conditions: human, CCK-8, 48 hours
Description: as §1

[10] = tested on: replicative HIV-1 strain JR-CSF
[11] = tested on: protease K, trypsin, or α-chymotrypsin
[12] = tested on: HIV-1 strain SG3.1 living virus
[13] = tested on: MERS-CoV; conditions: 48 h
[14] = tested on: HIV-1 strain JRFL pseudovirus; conditions: strain JRFL pseudovirus
[15] = Human serum stability experiment (antiviral activity after incubation); conditions: 20% human serum, 37 °C, 0 to 240 minutes; NL4-3 pseudovirus, TZM-bl cells
[16] = tested on: T20-resistant mutant strains (HIV-1 strain NL4-3)
[17] = In vitro cytotoxicity (CCK-8), Huh-7 cells; format: cell-based; conditions: human, CCK-8, 48 hours
Description: as §1

[18] = In vitro cytotoxicity (CCK-8), 293T/ACE2 cells; format: cell-based; conditions: human, CCK-8, 48 hours
Description: as §1

[19] = tested on: EBOV; conditions: 48 h
[20] = In vitro cytotoxicity (CCK-8), MT-4 cells; format: cell-based; conditions: human, CCK-8, 48 hours
Description: as §1

[21] = Circular dichroism of lipopeptide alone; format: physicochemical; conditions: CD, 10 µM in PBS pH 7.2
[22] = tested on: HIV-1 strain NL4-3 pseudovirus; conditions: strain NL4-3 pseudovirus
[23] = tested on: VSV; conditions: 48 h
[24] = In vitro cytotoxicity (CCK-8), Hep-2 cells; format: cell-based; conditions: human, CCK-8, 48 hours
Description: as §1

[25] = tested on: representative pandemic HIV-1 strain pseudoviruses
[26] = In vitro cytotoxicity (CCK-8), TZM-bl cells; format: cell-based; conditions: human, CCK-8, 48 hours
Description: as §1

N44, sequence (P04578 538-581): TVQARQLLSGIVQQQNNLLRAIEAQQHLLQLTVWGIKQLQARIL

**Q.** Which CC50 at 48 h [1] does the source give for CC[C@H](C)[C@H](NC(=O)[C@H](CCCCN)NC(=O)[C@H](CCCCN)NC(=O)[C@H](CCC(=O)O)NC(=O)[C@H](CC(C)C)NC(=O)[C@H](CCC(=O)O)NC(=O)[C@H](CCC(=O)O)NC(=O)[C@H](CC(C)C)NC(=O)[C@H](CCC(=O)O)NC(=O)[C@H](CCCCN)NC(=O)[C@H](CCC(=O)O)NC(=O)[C@H](Cc1ccc(O)cc1)NC(=O)[C@H](CCC(=O)O)NC(C)=O)C(=O)N[C@@H](CCC(=O)O)C(=O)N[C@@H](CCC(=O)O)C(=O)N[C@@H](CC(C)C)C(=O)N[C@@H](CC(C)C)C(=O)N[C@@H](CCCCN)C(=O)N[C@@H](CCCCN)C(=O)N[C@@H](C)C(=O)N[C@@H](CCC(=O)O)C(=O)N[C@@H](CCC(=O)O)C(=O)N[C@@H](CCC(N)=O)C(=O)N[C@@H](CCC(N)=O)C(=O)N[C@@H](CCCCN)C(=O)N[C@@H](CCCCN)C(=O)N[C@@H](CC(N)=O)C(=O)N[C@@H](CCC(=O)O)C(=O)N[C@@H](C)C(=O)N[C@@H](C)C(=O)N[C@@H](C)C(=O)N[C@@H](CCCCN)C(=O)N[C@@H](CCCCNC(=O)CCC(=O)O[C@H]1CC[C@@]2(C)C(=CC[C@H]3[C@@H]4CC[C@H]([C@H](C)CCCC(C)C)[C@@]4(C)CC[C@@H]32)C1)C(N)=O [LP-128] (Ac-EYEKELEELEKKIEELLKKAEEQQKKNEAAAKK(Succinyl(4-O-cholesteryl))-NH2) here?
**A.** 18.1 µM

**Q.** What about the IC50 [2] of the same compound?
**A.** 1130 nM

**Q.** What about the “change in antiviral activity after treatment at different temperatures” value [3] of the same compound?
**A.** no significant change

**Q.** What about the “Tm value of the mixture with N44” value ([4]; [θ]222, 20-98 °C at 2 °C/min) of the same compound?
**A.** 90 °C

**Q.** What about the “α-helix content of the mixture with N44” value ([4]; lipopeptide and N44 each 10 µM in PBS pH 7.2) of the same compound?
**A.** 84%

**Q.** What about the “therapeutic selective index (SI)” value [5] of the same compound?
**A.** very high

**Q.** What about the IC50 ([6]; read-out: average IC50 value, membrane fusion of 12 viruses, average over Env of 12 representative pandemic HIV-1 strains) of the same compound?
**A.** 4.02 pM

**Q.** And the “inhibitory activity against membrane fusions of 12 viruses higher than that of the T20” value ([6]; versus T20)?
**A.** 2790 folds

**Q.** And the IC50 [7]?
**A.** 534 nM

**Q.** What about the IC50 [8] of the same compound?
**A.** 353 nM

**Q.** What about the CC50 at 48 h [9] of the same compound?
**A.** 8.72 µM

**Q.** And the “inhibitory activity higher than the T20, JR-CSF” value ([10]; TZM-bl cells, versus T20)?
**A.** 750 folds

**Q.** What about the IC50 ([10]; replicative strain JR-CSF, 48 h) of the same compound?
**A.** 7.47 pM

**Q.** And the “change in antiviral activity after treatment with three proteases” value [11]?
**A.** no significant change

**Q.** And the “inhibitory activity higher than that of the T20, SG3.1” value ([12]; TZM-bl cells, versus T20)?
**A.** 4282 folds

**Q.** What about the IC50 ([12]; strain SG3.1 living virus) of the same compound?
**A.** 1.75 pM

**Q.** What about the IC50 [13] of the same compound?
**A.** 456 nM

**Q.** What about the IC50 [14] of the same compound?
**A.** 4.97 pM

**Q.** What about the “change in antiviral activity after treatment with human serum” value [15] of the same compound?
**A.** no significant change

**Q.** And the IC50 ([16]; T20-resistant mutant strains ( strain NL4-3, 48 h))?
**A.** 9.13 pM

**Q.** What about the “inhibitory activity against 12 drug-resistant mutant strains higher than that of the LP-98” value ([16]; versus LP-98) of the same compound?
**A.** 292 folds

**Q.** What about the CC50 at 48 h [17] of the same compound?
**A.** 40.3 µM

**Q.** And the CC50 at 48 h [18]?
**A.** 24.1 µM

**Q.** And the IC50 [19]?
**A.** 274 nM

**Q.** What about the CC50 at 48 h [20] of the same compound?
**A.** 28.2 µM

**Q.** And the “α-helix content, lipopeptide alone” value [21]?
**A.** 66%

**Q.** And the IC50 [22]?
**A.** 3.27 pM

**Q.** What about the IC50 [23] of the same compound?
**A.** 1490 nM

**Q.** What about the CC50 at 48 h [24] of the same compound?
**A.** 12.5 µM

**Q.** What about the IC50 ([25]; representative pandemic strain pseudoviruses, 48 h) of the same compound?
**A.** 3.19 pM

**Q.** What about the “inhibitory activity against 12 pseudoviruses higher than that of the T20” value ([25]; versus T20) of the same compound?
**A.** 6286 folds

**Q.** What about the CC50 at 48 h [26] of the same compound?
**A.** 7.49 µM
